In US20040097521A1, “Clinical treatment” (priority 2000, published 2004):

What was measured:
[1] = tested on: human colon carcinoma cells (CaCo2); test: Effects of NAC and di-NAC on human colon carcinoma cells (CaCo2) in culture; assay type: cell-based; settings: for local concentration for maximum inhibition of proliferation (no growth) / time to differentiate when treated: CaCo2; for toxic side effects: CaCo2, summary
Protocol: An established cell line of human colon carcinoma cells was used (CaCo2). CaCo2 is a proliferating human colon carcinoma cell line displaying irregular morphology, forming multiple cell layers with scarce microvillous structures and large intercellular spaces.
The CaCo2 cells were treated with various millimolar concentrations of NAC, ranging from 2 to 10 mM. NAC was added to the culture medium 24 hours after inoculation of the cells. After 3 days of culture in the presence of NAC the cells were analyzed for the following marker parameters: […]

[2] = tested on: primary normal human epidermal keratinocytes (NHEK); test: Effects of NAC or di-NAC on primary normal human epidermal keratinocytes (NHEK) in culture; assay type: cell-based; settings: for cell-cell junctions / concentration of E-cadherins / tubulin expression: 2 mM; for cell-cell junctions / concentration of E-cadherins / tubulin expression / concentration for complete suppression of cell proliferation: 3 days; for concentration for complete suppression of cell proliferation: 1 to 10 mM; for toxic side effects: summary
Description: Primary normal human epidermal keratinocytes (NHEK) obtained from Clonetics Inc. (San Diego, Calif., U.S.A.) were cultivated in the medium provided by the supplier. These cells have a limited life-span of about 15 days in culture and undergo a normal differentiation process of epidermal keratinocytes with a final enucleation and exfoliation. After inoculation the cells acquire a polygonal morphology cell-cell adhesions. The cytoskeleton morphology is quite organized, mainly at the cell borders.
NHEK cells were treated with various millimolar concentrations of NAC or di-NAC, ranging from 1 to 10 mM. The substances were added to the culture medium 24 hours after inoculation. After 3 days of culture in the presence of 2 mM of NAC or di-NAC the cells were analysed for the following marker parameters: […]

[3] = tested on: localized psoriatic plaques; test: Local treatment of psoriatic plaques in volunteers with NAC or di-NAC cream; assay type: in vivo, human; settings: base-cream 10-20 weight %; for outcome of prolonged treatment: weeks to a few months; for most commonly reported side effect: with occlusive bandage
Description: Five informed volunteers displaying localized psoriatic plaques were locally treated with a base-cream containing 10-20 weight % of NAC or di-NAC. The cream had been applied every night for variable periods—from weeks to a few months—with or without occlusive bandage. The skin of the patient was normally washed between each daily treatment. No other drugs were contemporarily used.

[4] = tested on: 1,2-dimethylhydrazine (DMH)-induced large intestinal tumors; test: DMH-induced large intestinal tumors in rats; assay type: in vivo, male Sprague-Dawley rats
Description: The effects of daily NAC treatment or intermittent NAC treatments on intestinal tumors, which had been induced by treating male Sprague-Dawley rats with 1,2-dimethylhydrazine (DMH), were investigated.

[5] = tested on: DHD/K12-PROb colon adenocarcinoma; test: Colon adenocarcinoma (DHD/K12-PROb cells s.c.) in BD-IX rats; assay type: in vivo; settings: weekly injection
Protocol: In this experimental model BD-IX rats were divided into four groups: Groups G1 and G2, designated “cancer groups”, were used to study the effects of NAC on the progression of colon cancer, and Groups G3 and G4, designated “toxicity groups”, were used to study the effects of the treatment on metabolic processes and the parenchyma. DHD/K12-PROb cells were injected subcutaneously into the chest of Group G1 and G2 animals. From 1 to 13 weeks after inoculation the animals in Groups G2 and G4 received a weekly injection of NAC. The animals in Groups G1 and G3 received no treatment.

protein kinase C (PKC) = test: AOM-induced rat colon cancer model, PKC activity; assay type: in vivo; settings: colonic mucosa and tumors, P<0.01
Protocol: (§1) Since the efficacy of NAC against colon cancer is significant, the mechanisms of inhibiting colon carcinogenesis were explored by investigating the activities of protein kinase C (PKC), tyrosine protein kinase (TPK), and diacylglycerol kinase (DGK) as well as the 8-isoprostane levels in colonic mucosa and tumor tissues in an azoxy-methane (AOM)-induced rat colon cancer model.
(§2) At seven weeks of age corresponding groups of rats were injected s.c. with azoxymethane (AOM; 15 mg/kg body weight, once weekly for 2 weeks), and different experiments were continued until 38 weeks after the second AOM treatment. Then, the rats were then sacrificed and colonic mucosal as well as tumor samples were evaluated for PKC, TPK, DGK, and 8-isoprostane levels.

[6] = tested on: tyrosine protein kinase (TPK); test: AOM-induced rat colon cancer model, TPK activity; assay type: in vivo; settings: colonic mucosal and tumor, P<0.01
Protocol: as §1, §2

[7] = tested on: diacylglycerol kinase (DGK); test: AOM-induced rat colon cancer model, DGK activity; assay type: in vivo; settings: P<0.01
Protocol: as §1, §2

8-isoprostane = test: AOM-induced rat colon cancer model, 8-isoprostane levels; assay type: in vivo; settings: colonic tumors, versus control
Protocol: as §1, §2

[8] = tested on: 4NQO-induced rat malignant oral keratinocytes; test: 4NQO-induced rat malignant oral keratinocytes transplanted orthotopically to athymic mice; assay type: in vivo; settings: for potential to metastasise: differentiated rat malignant oral keratinocytes, versus untreated
Description: The effects of NAC or di-NAC on the metastatic capacity of clonal populations of 4NQO-induced rat malignant oral keratinocytes were examined after orthotopic transplantation to athymic mice. Polygonal cells and spindle cells formed well-differentiated squamous cell carcinomas (keratin positive and vimentin negative) and undifferentiated spindle cell tumors (keratin negative and vimentin positive), respectively, in all animals at the site of inoculation (floor of mouth).

[9] = cited from earlier work
myeloma type tumor cells = settings: in vitro; cited from earlier work
[10] = tested on: human colon carcinoma cells (CaCo2); test: Effects of NAC and di-NAC on human colon carcinoma cells (CaCo2) in culture; assay type: cell-based; settings: CaCo2, di-NAC treatment
arteriosclerosis = settings: WHHL rabbits; cited from earlier work

With `CC(=O)N[C@@H](CS)C(=O)O` [NAC, N-acetyl-L-cysteine] the “local concentration for maximum inhibition of proliferation (no growth)” value [1] was “about 1 mM”, the “time to differentiate when treated” value [1] was 3 days and the apoptosis / necrosis ([1]; CaCo2, 2 to 10 mM, 3 days) was “Neither apoptosis nor necrosis was observed”. The “concentration of maximum effect on decrease of cell proliferation” value ([1]; CaCo2, 2 to 10 mM, 3 days of culture) was 2 mM, the cell-cell adhesion structures ([1]; CaCo2, 3 days of culture) was “increased number” and the tubulin expression ([1]; CaCo2, 3 days of culture) was “strongly reduced”. The cell viability ([1]; CaCo2, all doses added (2 to 10 mM), 3 days) was “unaffected”, the toxic side effects [1] was “without any detectable toxic side effects” and the “concentration at which reversion of colon cancer cells is induced” value [1] was 1 mM. The “concentration at which colon carcinoma completely differentiate” value [1] was 5 mM, the “local concentration for maximum inhibition of proliferation (no growth)” value ([2]; NHEK) was “about 1 mM” and the “time to differentiate when treated” value ([2]; NHEK) was 3 days. For the same molecule, the cell-cell junctions ([2]; NHEK) was “increased number”, the “concentration of E-cadherins” value ([2]; NHEK) was “increased” and the tubulin expression ([2]; NHEK) was “reduced”. For the same molecule, the “concentration for complete suppression of cell proliferation” value ([2]; NHEK) was 2 mM, the cell viability ([2]; NHEK, all doses, up to 10 mM) was “unaffected” and the toxic side effects ([2]; NHEK) was “no toxic side effects”. The apoptosis / necrosis ([2]; NHEK, up to 10 mM) was “Neither apoptosis nor necrosis was observed”, the “concentration at which keratinocytes completely differentiate” value [2] was 1 mM and the “minimum dose required to accelerate differentiation of normal keratinocytes” value [2] was 0.5 mM. The “outcome of prolonged treatment” value [3] was “complete remission of all symptoms”, the “most commonly reported side effect” value [3] was “local hitching” and the “large intestinal tumor mass index” value ([4]; NAC-treated group, p<0.001 vs control) was 0.04. The “adenocarcinomas in the colons” value ([4]; daily NAC treatment) was “no adenocarcinomas were present”, the “large intestinal tumor burden” value ([4]; intermittent NAC treatment, p=0.001 vs control) was 1 tumors/treatment group and the tumor growth ([5]; female and male rats) was “significantly slower”. For the same molecule, the life span ([5]; 1 to 13 weeks after inoculation) was “extended life span”, the “Ca2+ dependent and independent PKC activities” value (protein kinase C (PKC)) was “significantly inhibited” and the TPK activities [6] was “significantly suppressed”. For the same molecule, the DGK activity [7] was “significant increased”, the 8-isoprostane levels (8-isoprostane) was “lower levels” and the potential to metastasise [8] was “decreased potential to metastasise”. For the same molecule, the “inhibition of clones of polygonal cells” value ([8]; exogenous NAC) was “markedly inhibited”, the “inhibition of spindle cells” value ([8]; exogenous NAC) was “inhibited” and the “side effects when used clinically” value ([9]; even after high doses, such as 10 g/day) was “no significant side effects”. The clearance ([9]; in vivo) was “relatively rapid”, the “side effects after intravenous injection” value ([9]; paracetamol poisoning, 10 grams i.v. in 15 minutes, then half of the dose in 30 min) was “without any reported side effects” and the “activity against myeloma type tumor cells” value (myeloma type tumor cells) was “tumor proliferation inhibitory activity”.

With `CC(=O)N[C@@H](CSSC[C@H](NC(C)=O)C(=O)O)C(=O)O` [di-NAC, N,N′-diacetyl-L-cystine] the “local concentration for maximum inhibition of proliferation (no growth)” value [1] was “about 1 mM”, the “time to differentiate when treated” value [1] was 3 days and the toxic side effects [1] was “without any detectable toxic side effects”. For the same molecule, the “concentration at which reversion of colon cancer cells is induced” value [1] was 1 mM, the “concentration at which colon carcinoma completely differentiate” value [1] was 5 mM and the “local concentration for maximum inhibition of proliferation (no growth)” value ([2]; NHEK) was “about 1 mM”. The “time to differentiate when treated” value ([2]; NHEK) was 3 days, the cell-cell junctions ([2]; NHEK) was “increased number” and the “concentration of E-cadherins” value ([2]; NHEK) was “increased”. The tubulin expression ([2]; NHEK) was “reduced”, the “concentration for complete suppression of cell proliferation” value ([2]; NHEK) was 2 mM and the toxic side effects ([2]; NHEK) was “no toxic side effects”. The “concentration at which keratinocytes completely differentiate” value [2] was 1 mM, the “minimum dose required to accelerate differentiation of normal keratinocytes” value [2] was 0.5 mM and the “outcome of prolonged treatment” value [3] was “complete remission of all symptoms”. The “most commonly reported side effect” value [3] was “local hitching”, the potential to metastasise [8] was “decreased potential to metastasise” and the E-cadherin expression [10] was “increased”. The proliferation [10] was “decreased proliferation” and the effect on arteriosclerosis (arteriosclerosis) was “inhibits arteriosclerosis”.
